Data set [1] relates to Vesicular stomatitis virus. The experiment in a line: Antiviral activity against Vesicular stomatitis virus Indiana infected in A549 cells assessed as reduction in virus titer preincubated for 24 hrs followed by viral infection and measured after 72 hrs by microscopic analysis. Type of data set: functional, organism-based.
Data set [2] deals with Human alphaherpesvirus 1. The experiment in a line: Antiviral activity against Human herpesvirus 1 MacIntyre infected in A549 cells assessed as reduction in virus titer preincubated for 24 hrs followed by viral infection and measured after 72 hrs by microscopic analysis. Type of data set: functional, organism-based.
Data set [3] concerns Human adenovirus 5. The data set is described as follows: Antiviral activity against Human adenovirus 5 Adenoid 75 infected in A549 cells assessed as inhibition of viral adsorption at early stage of replication treated for 1 hr during viral infection followed by replacement with fresh medium and measured after 72 hrs by MTT assay. Format: functional, organism-based.
Data set [4] can be described thus: Selectivity index, ratio of CC50 for cytotoxicity against human A549 cells to EC50 for antiviral activity against Human herpesvirus 1 MacIntyre infected in A549 cells assessed as reduction in virus titer treated 1 hr post viral infection followed by replacement with fresh medium with compounds and measured after 72 hrs by MTT assay. Type of data set: toxicity, cell-based. The conditions noted are these: read-out: Selectivity Index.

Data set [5] deals with MDCK. The data set is described as follows: Cytotoxicity against MDCK cells assessed as reduction in cell viability incubated for 72 hrs by MTT assay. Format: cell-based, Canis lupus familiaris. The conditions noted are these: dog, mdck, 72 h. In general terms: Formazan colour is commonly taken as a measure of viable cells.
The test system of data set [6] is Human alphaherpesvirus 1. The experiment in a line: Potency index, ratio of acyclovir EC50 to test compound EC50 for antiviral activity against Human herpesvirus 1 MacIntyre infected in A549 cells assessed as reduction in virus titer treated 1 hr post viral infection followed by replacement with fresh medium with compounds and measured after 48 hrs by MTT assay. Type of data set: functional.

For data set [7], the system named is A549. The data set is described as follows: (§1) Cytotoxicity against human A549 cells assessed as reduction in cell viability incubated for 48 hrs by MTT assay. Format: cell-based. To be noted: a549, 48 h.
The nature of data set [8]: as §1. Type of data set: cell-based. To be noted: A549 cells.
For data set [9], the system named is Enterovirus E. The data set is described as follows: Antiviral activity against Enterovirus E LCR-4 infected in A549 cells assessed as inhibition of viral adsorption at early stage of replication treated for 1 hr during viral infection followed by replacement with fresh medium and measured after 72 hrs by MTT assay. Format: functional, organism-based.
In data set [10] the test system is Human alphaherpesvirus 1. The experiment in a line: Antiviral activity against Human herpesvirus 1 MacIntyre infected in A549 cells assessed as reduction in virus titer treated 1 hr post viral infection followed by replacement with fresh medium with compounds and measured after 48 hrs by MTT assay. Format: functional, organism-based. To be noted: Human alphaherpesvirus 1, MacIntyre.

The subject of data set [11] is Human adenovirus 5. The data set is described as follows: Antiviral activity against Human adenovirus 5 Adenoid 75 infected in A549 cells assessed as reduction in virus titer preincubated for 24 hrs followed by viral infection and measured after 72 hrs by microscopic analysis. Type of data set: functional, organism-based.
In data set [12] the test system is Human alphaherpesvirus 1. The data set is described as follows: Antiviral activity against Human herpesvirus-1 MacIntyre infected in A549 cells assessed as inhibition of viral adsorption at early stage of replication treated for 1 hr during viral infection followed by replacement with fresh medium and measured after 48 hrs by MTT assay. Format: functional, organism-based.

Activity calls are given as the source filed them. The rule behind the calls is not given here.

On to `C=C(C)[C@@H]1CC[C@]2(COC(=O)CCCC(=O)N3CCOCC3)CC[C@]3(C)[C@H](CC[C@@H]4[C@@]5(C)CC[C@H](O)C(C)(C)[C@@H]5CC[C@]43C)[C@@H]12`, for which the result in data set [1], in data set [2], in data set [3], in [9], in data set [11] and in data set [12] was inactive. In [4], the selectivity ratio at 72 h was 8. The CC20 in data set [5] and in data set [7] was 18.85 µM throughout. In addition, the “Ratio EC50” value in data set [6] was 3. The half-maximal cytotoxic concentration (CC50) (commonly the concentration that lowers cell viability or growth by half) at 48 h in data set [8] is 151 µM. Moreover, the EC50 (commonly the concentration giving half of the maximal effect) in data set [10] came out at 18.9 µM.

For the compound `C=C(C)[C@@H]1CC[C@]2(COC(=O)CCCC(=O)O)CC[C@]3(C)[C@H](CC[C@@H]4[C@@]5(C)CC[C@H](O)C(C)(C)[C@@H]5CC[C@]43C)[C@@H]12`, the outcome in data set [1], in data set [2], in data set [3], in data set [9], in data set [11] and in data set [12] was inactive. For the same compound, the selectivity ratio at 72 h in [4] came out at 3.6. Further, the results for the CC20 in [5] and in data set [7] were 11.22 µM and 22.44 µM, respectively. In addition, the “Ratio EC50” value in [6] is listed as 3. Also, the CC50 at 48 h in data set [8] was 80.8 µM. In addition, the EC50 in data set [10] came to 22.4 µM.

With `C=C(C)[C@@H]1CC[C@]2(COC(=O)c3ccccc3C(=O)N3CCCCC3)CC[C@]3(C)[C@H](CC[C@H]4C3(C)CC[C@H]3C(C)(C)[C@@H](O)CC[C@@]34C)[C@@H]12` (single isomer, unassigned), the outcome in [1], in data set [2], in [3], in data set [9], in [11] and in data set [12] was inactive. Besides, the selectivity ratio at 72 h in data set [4] came to 2. Also, the CC20 turned out to be 32.72 µM in [5] and 65.45 µM in data set [7]. In [6], the “Ratio EC50” value turned out to be 3. Also, the cytotoxic concentration (CC50) at 48 h in data set [8] is 65.4 µM. Further, in data set [10], the half-maximal effective concentration (EC50) is 32.7 µM.

On to `C=C(C)[C@@H]1CC[C@]2(COC(=O)CCCC(=O)N3CCCCC3)CC[C@]3(C)[C@H](CC[C@@H]4[C@@]5(C)CC[C@H](O)C(C)(C)[C@@H]5CC[C@]43C)[C@@H]12`, for which the result in [1], in data set [2], in data set [3], in data set [9], in [11] and in [12] was inactive. The results for the CC20 in data set [5] and in data set [7] were 4.25 µM and 17.12 µM, respectively. For the same compound, the “Ratio EC50” value in data set [6] is on record as 3.

With `C#CC1(NC(=O)CCC(=O)OC[C@]23CC[C@@H](C(=C)C)[C@@H]2[C@H]2CC[C@@H]4[C@@]5(C)CC[C@H](O)C(C)(C)[C@@H]5CC[C@@]4(C)[C@]2(C)CC3)CCCCC1`, the outcome in data set [1], in [2], in data set [3], in data set [9], in data set [11] and in [12] was inactive. In addition, the CC20 was determined as 0.77 µM in [5] and 110.38 µM in data set [7].

For `C#CCNC(=O)c1cccc(C(=O)OC[C@]23CC[C@@H](C(=C)C)[C@@H]2[C@H]2CC[C@@H]4C5(C)CC[C@H](O)C(C)(C)[C@@H]5CC[C@@]4(C)[C@]2(C)CC3)c1` (single isomer, unassigned), the outcome in [1], in data set [2], in data set [3], in data set [9], in data set [11] and in data set [12] was inactive. The CC20 in [5] and in data set [7] was 159.24 µM each time.

As for `C=C(C)[C@@H]1CC[C@]2(COC(=O)c3cccc(C(=O)O)c3)CC[C@]3(C)[C@H](CC[C@@H]4[C@@]5(C)CC[C@H](O)C(C)(C)[C@@H]5CC[C@]43C)[C@@H]12`, the outcome in data set [1], in [2], in data set [3], in data set [9], in data set [11] and in data set [12] was inactive. In addition, the CC20 was 42.3 µM in data set [5] and 21.15 µM in [7].

In the case of `C=C(C)[C@@H]1CC[C@]2(COC(=O)CCCCCCCCCC(=O)N3CCCCC3)CC[C@]3(C)[C@H](CC[C@@H]4[C@@]5(C)CC[C@H](O)C(C)(C)[C@@H]5CC[C@]43C)[C@@H]12`, the outcome in data set [1], in data set [2], in [3], in data set [9], in data set [11] and in data set [12] was inactive. The CC20 in data set [5] worked out at 127.84 µM; in data set [7] it was 127.23 µM.

In the case of `C=C(C)[C@@H]1CC[C@]2(COC(=O)c3cccc(C(=O)N4CCOCC4)c3)CC[C@]3(C)[C@H](CC[C@@H]4[C@@]5(C)CC[C@H](O)C(C)(C)[C@@H]5CC[C@]43C)[C@@H]12`, the result in [1], in data set [2], in data set [3], in [9], in data set [11] and in data set [12] was inactive. In addition, the CC20 in data set [5] is 143.47 µM; in data set [7] it was 71.74 µM.

With `C=C(C)[C@@H]1CC[C@]2(COC(=O)CCC(=O)N3CCSCC3)CC[C@]3(C)[C@H](CC[C@@H]4[C@@]5(C)CC[C@H](O)C(C)(C)[C@@H]5CC[C@]43C)[C@@H]12`, the outcome in data set [1], in [2], in data set [3], in [9], in data set [11] and in data set [12] was inactive. For the same compound, the figures for the CC20 in [5] and in data set [7] were 124.84 µM and 62.42 µM, respectively.

As for `C=C(C)[C@@H]1CC[C@]2(COC(=O)/C=C/C(=O)O)CC[C@]3(C)[C@H](CC[C@@H]4[C@@]5(C)CC[C@H](O)C(C)(C)[C@@H]5CC[C@]43C)[C@@H]12`, the outcome in [1], in [2], in data set [3], in [9], in data set [11] and in [12] was inactive. Also, the CC20 in data set [5] worked out at 5.73 µM; in [7], 11.55 µM.

In the case of `C#CC1(NC(=O)CCCCCCCCCC(=O)OC[C@]23CC[C@@H](C(=C)C)[C@@H]2[C@H]2CCC4[C@@]5(C)CC[C@H](O)C(C)(C)[C@@H]5CC[C@@]4(C)[C@]2(C)CC3)CCCCC1` (single isomer, unassigned), the result in [1], in [2], in data set [3], in [9], in data set [11] and in data set [12] was inactive. The CC20 in data set [5] and in data set [7] was 102.46 µM each time.

As for `C=C(C)[C@@H]1CC[C@]2(COC(=O)/C=C(\C)C(=O)N3CCSCC3)CC[C@]3(C)[C@H](CC[C@@H]4[C@@]5(C)CC[C@H](O)C(C)(C)[C@@H]5CC[C@]43C)[C@@H]12`, the result in [1], in data set [2], in data set [3], in data set [9], in [11] and in data set [12] was inactive. Also, the CC20 in data set [5] and in data set [7] was 61.5 µM in each case.

For `C=C(C)[C@@H]1CC[C@]2(COC(=O)c3ccccc3C(=O)O)CC[C@]3(C)[C@H](CC[C@@H]4[C@@]5(C)CC[C@H](O)C(C)(C)[C@@H]5CC[C@]43C)[C@@H]12`, the result in [1], in data set [2], in data set [3], in data set [9], in data set [11] and in data set [12] was inactive. Further, the CC20 in data set [5] turned out to be 42.3 µM; in data set [7] it was 21.15 µM.

The values above are taken from ChEMBL document CHEMBL4831514, “Novel betulin dicarboxylic acid ester derivatives as potent antiviral agents: Design, synthesis, biological evaluation, structure-activity relationship and in-silico study” (Eur J Med Chem, 2021).
